From patent publication US11767341B2, “Lincosamide antibiotics and uses thereof” (President and Fellows of Harvard College, priority 2017, dated 2023)
Values after ≈ are worked out from the molar mass of the structure shown. Read-outs that look alike come from different tables or passages of the source.

How the values were obtained:
Assay in all cases: MIC determination
Type in all cases: cell-based
[1] = system: S. aureus UNT-120, MP-619, NRS22 (USA 600, GISA); conditions: Staphylococcus aureus
S. pneumoniae ATCC 49619 = conditions: Streptococcus pneumoniae, ATCC49619; S. pneumoniae ATCC 49619; read-out: MIC
E. coli ATCC 25922 = conditions: Escherichia coli
K. pneumoniae ATCC 10031 = conditions: Klebsiella pneumoniae, ATCC10031
[2] = system: S. aureus UNT-146, MP-620, TP 506 (ermA); conditions: Staphylococcus aureus
E. faecalis ATCC 29212 = conditions: Enterococcus faecalis
[3] = system: K. pneumoniae IHMA 658692; KPC-2; conditions: Klebsiella pneumoniae; K. pneumoniae IHMA 658692; KPC-2; read-out: MIC
[4] = system: S. aureus UNT96, NRS710, MP-618 (USA 100, Erythro >8); conditions: Staphylococcus aureus
S. aureus ATCC 29213 = conditions: Staphylococcus aureus
P. aeruginosa ATCC 27853 = conditions: Pseudomonas aeruginosa, ATCC27853
H. influenzae ATCC 49247 = conditions: Haemophilus influenzae, ATCC49247; H. influenzae ATCC 49247; read-out: MIC
[5] = system: S. pneumoniae UNT-039, MP-627, TP1517 (mefA); conditions: Streptococcus pneumoniae
E. coli GUEST131 (NDM-1) = conditions: Escherichia coli
S. pyogenes ATCC 19615 = conditions: Streptococcus pyogenes, ATCC19615
[6] = system: S. pyogenes UNT-014, MP-625 MacRes; conditions: Streptococcus pyogenes
[7] = system: S. pneumoniae UNT-038, MP-626, TP 160 (mefA); conditions: Streptococcus pneumoniae
[8] = system: S. aureus BAA-1556 (USA 300); conditions: Staphylococcus aureus; S. aureus BAA-1556 (USA 300); read-out: MIC
[9] = system: S. pneumoniae TP 1537 (ermB + mefA); conditions: Streptococcus pneumoniae; S. pneumoniae TP 1537 (ermB + mefA); read-out: MIC
[10] = system: S. pneumoniae TP 1579 (ermB + tet(M, O)); conditions: Streptococcus pneumoniae
E. faecalis UNT-047 VRE = conditions: Enterococcus faecalis
E. coli MP-9 ΔTolC = conditions: Escherichia coli
S. aureus BAA 977 iErmA = conditions: Staphylococcus aureus, BAA977
[11] = system: S. aureus MP-513 clinical cErm; conditions: Staphylococcus aureus
[12] = system: S. aureus MP-549 msr(a) USA 300; conditions: Staphylococcus aureus, USA300, S. aureus MP-549 msr(a) USA 300
[13] = system: E. faecalis MMX 847 Macrolide-Resistant; conditions: Enterococcus faecalis
[14] = system: P. aeruginosa MMX Mex parent strain; conditions: Pseudomonas aeruginosa
[15] = system: P. aeruginosa MMX 3476 Δmex; conditions: Pseudomonas aeruginosa
[16] = system: S. aureus Micromyx USA 300; conditions: Staphylococcus aureus, USA300; S. aureus Micromyx USA 300; read-out: MIC
E. coli MMX 0121 ΔTolC = conditions: Escherichia coli
[17] = system: E. coli MMX TolC parent strain; conditions: Escherichia coli
[18] = S. aureus UNT-120, MP-619, NRS22 (USA 600, GISA), read-out: MIC
[19] = ATCC25922, E. coli ATCC 25922, read-out: MIC
[20] = K. pneumoniae ATCC 10031, read-out: MIC
[21] = S. aureus UNT-146, MP-620, TP 506 (ermA), read-out: MIC
[22] = S. aureus UNT96, NRS710, MP-618 (USA 100, Erythro >8), read-out: MIC
[23] = ATCC29213, S. aureus ATCC 29213, read-out: MIC
[24] = P. aeruginosa ATCC 27853, read-out: MIC
[25] = S. pyogenes ATCC 19615, read-out: MIC
[26] = S. pyogenes UNT-014, MP-625 MacRes, read-out: MIC
[27] = E. faecalis UNT-047 VRE, read-out: MIC

CSC1O[C@H]([C@H](NC(=O)[C@@H]2[C@@H]3OCCCC[C@H]3CN2C)[C@H](C)Cl)C(O)C(O)[C@H]1O (stereo partly shown) [FSA-24040]
MIC [1, 18]: > 32 µg/mL | MIC (S. pneumoniae ATCC 49619): ≤ 0.0313 µg/mL | MIC (E. coli ATCC 25922; [19]): > 32 µg/mL | MIC (K. pneumoniae ATCC 10031; [20]): 8 µg/mL (≈ 17.7 µM) | MIC [2, 21]: > 32 µg/mL | MIC (E. faecalis ATCC 29212; ATCC29212, read-out: MIC): 32 µg/mL (≈ 70.6 µM) | MIC [3]: > 32 µg/mL | MIC [4, 22]: > 32 µg/mL | MIC (S. aureus ATCC 29213; [23]): ≤ 0.0313 µg/mL | MIC (P. aeruginosa ATCC 27853; [24]): > 32 µg/mL | MIC (H. influenzae ATCC 49247): 8 µg/mL (≈ 17.7 µM) | MIC [5]: ≤ 0.0313 µg/mL | MIC (E. coli GUEST131 (NDM-1)): > 32 µg/mL | MIC (S. pyogenes ATCC 19615; [25]): ≤ 0.0313 µg/mL | MIC [6, 26]: ≤ 0.0313 µg/mL | MIC [7]: ≤ 0.0313 µg/mL | MIC [8]: > 32 µg/mL | MIC [9]: > 32 µg/mL | MIC [10]: ≤ 0.0313 µg/mL | MIC (E. faecalis UNT-047 VRE; [27]): > 32 µg/mL

CSC1O[C@H]([C@H](NC(=O)[C@H]2NC[C@@H]3C[C@H]4OC(C)(C)O[C@H]4CO[C@H]32)[C@H](C)Cl)C(O)[C@@H](O)[C@H]1O (stereo partly shown) [FSA-501099]
MIC [1]: > 64 µg/mL | MIC (S. pneumoniae ATCC 49619): 8 µg/mL (≈ 15.7 µM) | MIC (E. coli MP-9 ΔTolC): > 64 µg/mL | MIC (E. coli ATCC 25922; ATCC25922): > 64 µg/mL | MIC (K. pneumoniae ATCC 10031): > 64 µg/mL | MIC (S. aureus BAA 977 iErmA): > 64 µg/mL | MIC [2]: > 64 µg/mL | MIC (E. faecalis ATCC 29212; ATCC29212): > 64 µg/mL | MIC [11]: > 64 µg/mL | MIC [4]: > 64 µg/mL | MIC (S. aureus ATCC 29213; ATCC29213): > 64 µg/mL | MIC (P. aeruginosa ATCC 27853): > 64 µg/mL | MIC [12]: > 64 µg/mL | MIC [5]: 2 µg/mL (≈ 3.91 µM) | MIC (S. pyogenes ATCC 19615; [25]): 16 µg/mL (≈ 31.3 µM) | MIC [6, 26]: 29 µg/mL (≈ 56.7 µM) | MIC [7]: 16 µg/mL (≈ 31.3 µM) | MIC (E. faecalis UNT-047 VRE; VRE): > 64 µg/mL

CSC1O[C@H]([C@H](NC(=O)[C@H]2NC[C@@H]3CN(Cc4ccccc4)CCO[C@H]32)[C@H](C)Cl)C(O)[C@@H](O)[C@H]1O (stereo partly shown) [FSA-502002]
MIC [1]: > 64 µg/mL | MIC (S. pneumoniae ATCC 49619): 0.25 µg/mL (≈ 0.472 µM) | MIC (E. coli MP-9 ΔTolC): > 64 µg/mL | MIC (E. coli ATCC 25922; ATCC25922): > 64 µg/mL | MIC (K. pneumoniae ATCC 10031; [20]): 64 µg/mL (≈ 121 µM) | MIC (S. aureus BAA 977 iErmA): 2 µg/mL (≈ 3.77 µM) | MIC [2]: > 64 µg/mL | MIC (E. faecalis ATCC 29212; ATCC29212, read-out: MIC): 8 µg/mL (≈ 15.1 µM) | MIC [11]: > 64 µg/mL | MIC [4]: > 64 µg/mL | MIC (S. aureus ATCC 29213; [23]): 2 µg/mL (≈ 3.77 µM) | MIC (P. aeruginosa ATCC 27853): > 64 µg/mL | MIC [12]: 2 µg/mL (≈ 3.77 µM) | MIC [5]: 0.125 µg/mL (≈ 0.236 µM) | MIC (S. pyogenes ATCC 19615; [25]): 0.125 µg/mL (≈ 0.236 µM) | MIC [6, 26]: 0.125 µg/mL (≈ 0.236 µM) | MIC [7]: 0.25 µg/mL (≈ 0.472 µM) | MIC (E. faecalis UNT-047 VRE; VRE): > 64 µg/mL

CSC1O[C@H]([C@H](NC(=O)[C@H]2NC[C@@H]3CCCO[C@H]32)[C@H](C)Cl)C(O)[C@@H](O)[C@H]1O (stereo partly shown) [FSA-24041]
MIC [1, 18]: > 32 µg/mL | MIC (S. pneumoniae ATCC 49619): 0.0625 µg/mL (≈ 0.147 µM) | MIC (E. coli ATCC 25922; [19]): > 32 µg/mL | MIC (K. pneumoniae ATCC 10031; [20]): > 32 µg/mL | MIC [2, 21]: > 32 µg/mL | MIC (E. faecalis ATCC 29212; ATCC29212, read-out: MIC): 32 µg/mL (≈ 75.3 µM) | MIC [3]: > 32 µg/mL | MIC [4, 22]: > 32 µg/mL | MIC (S. aureus ATCC 29213; [23]): 0.5 µg/mL (≈ 1.18 µM) | MIC (P. aeruginosa ATCC 27853; [24]): > 32 µg/mL | MIC (H. influenzae ATCC 49247): 32 µg/mL (≈ 75.3 µM) | MIC [5]: ≤ 0.0313 µg/mL | MIC (E. coli GUEST131 (NDM-1)): > 32 µg/mL | MIC (S. pyogenes ATCC 19615; [25]): ≤ 0.0313 µg/mL | MIC [6, 26]: 0.0625 µg/mL (≈ 0.147 µM) | MIC [7]: 0.0625 µg/mL (≈ 0.147 µM) | MIC [8]: > 32 µg/mL | MIC [9]: > 32 µg/mL | MIC [10]: ≤ 0.0313 µg/mL | MIC (E. faecalis UNT-047 VRE; [27]): > 32 µg/mL

CSC1O[C@H]([C@H](NC(=O)[C@H]2NC[C@@H]3C[C@@H](O)[C@@H](O)CO[C@H]32)[C@H](C)Cl)C(O)[C@@H](O)[C@H]1O (stereo partly shown) [FSA-501076]
MIC [1]: > 64 µg/mL | MIC (S. pneumoniae ATCC 49619): 64 µg/mL (≈ 136 µM) | MIC (E. coli MP-9 ΔTolC): > 64 µg/mL | MIC (E. coli ATCC 25922; ATCC25922): > 64 µg/mL | MIC (K. pneumoniae ATCC 10031): > 64 µg/mL | MIC (S. aureus BAA 977 iErmA): > 64 µg/mL | MIC [2]: > 64 µg/mL | MIC (E. faecalis ATCC 29212; ATCC29212): > 64 µg/mL | MIC [11]: > 64 µg/mL | MIC [4]: > 64 µg/mL | MIC (S. aureus ATCC 29213; ATCC29213): > 64 µg/mL | MIC (P. aeruginosa ATCC 27853): > 64 µg/mL | MIC [12]: > 64 µg/mL | MIC [5]: 32 µg/mL (≈ 67.9 µM) | MIC (S. pyogenes ATCC 19615): > 64 µg/mL | MIC [6]: > 64 µg/mL | MIC [7]: 64 µg/mL (≈ 136 µM) | MIC (E. faecalis UNT-047 VRE; VRE): > 64 µg/mL

CCC[C@@H]1C[C@@H](C(=O)N[C@@H]([C@H]2O[C@H](SC)[C@H](O)[C@@H](O)[C@H]2O)[C@H](C)Cl)N(C)C1 [Clindamycin, clindamycin, reference compound]
MIC [13]: > 64 µg/mL | MIC [14]: > 64 µg/mL | MIC [15]: > 64 µg/mL | MIC [11]: > 64 µg/mL | MIC (P. aeruginosa ATCC 27853): > 64 µg/mL | MIC [5]: ≤ 0.0313 µg/mL | MIC (E. coli GUEST131 (NDM-1)): > 3 µg/mL | MIC [16]: 0.25 µg/mL (≈ 0.588 µM) | MIC [6, 26]: ≤ 0.0313 µg/mL | MIC (E. coli MMX 0121 ΔTolC): 4 µg/mL (≈ 9.41 µM) | MIC [7]: ≤ 0.0313 µg/mL | MIC [10]: ≤ 0.0313 µg/mL | MIC [17]: > 64 µg/mL

CSC1O[C@H]([C@H](NC(=O)[C@H]2NC[C@@H]3C=CCO[C@@H]23)[C@H](C)Cl)C(O)[C@@H](O)[C@H]1O (stereo partly shown) [FSA-24039]
MIC [1, 18]: > 32 µg/mL | MIC (S. pneumoniae ATCC 49619): 0.0625 µg/mL (≈ 0.148 µM) | MIC (E. coli ATCC 25922; [19]): > 32 µg/mL | MIC (K. pneumoniae ATCC 10031; [20]): > 32 µg/mL | MIC [2, 21]: > 32 µg/mL | MIC (E. faecalis ATCC 29212; ATCC29212, read-out: MIC): 32 µg/mL (≈ 75.7 µM) | MIC [3]: > 32 µg/mL | MIC [4, 22]: > 32 µg/mL | MIC (S. aureus ATCC 29213; [23]): 1 µg/mL (≈ 2.36 µM) | MIC (P. aeruginosa ATCC 27853; [24]): > 32 µg/mL | MIC (H. influenzae ATCC 49247): 32 µg/mL (≈ 75.7 µM) | MIC [5]: ≤ 0.0313 µg/mL | MIC (E. coli GUEST131 (NDM-1)): > 32 µg/mL | MIC (S. pyogenes ATCC 19615; [25]): 0.125 µg/mL (≈ 0.296 µM) | MIC [6, 26]: 0.125 µg/mL (≈ 0.296 µM) | MIC [7]: 0.125 µg/mL (≈ 0.296 µM) | MIC [8]: > 32 µg/mL | MIC [9]: > 32 µg/mL | MIC [10]: 0.0625 µg/mL (≈ 0.148 µM) | MIC (E. faecalis UNT-047 VRE; [27]): > 32 µg/mL
